Assay results as given in patent EP2951180B1, “2,6,7,8 SUBSTITUTED PURINES AS HDM2 INHIBITORS” (Merck Sharp & Dohme Corp., priority 2013, dated 2014).

Each compound was assayed against T1, HDM2 (Homo sapiens, UniProt Q00987) (assay: HDM2 FRET assay (inhibition of binding of FITC labeled p53-pocket peptide to HDM2)). Conditions: 0.5 nM HDM2 (residues 17 to 125), 3nM peptide, two hour incubation at room temperature; read-out: FRET IC50.
T1 construct: Thioredoxin (N); made in house; host or cells: E. coli strain BL21(DE3)Rosetta
In short: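 TR-FRET with 0.5 nM His-tagged recombinant HDM2, 3 nM FITC-labelled p53 peptide and 0.25 nM Tb-anti-His antibody in PBS, 0.01% BSA, 0.01% Tween-20, 0.1% DMSO. IC50 from em520/em495 ratio over 10-point dilutions, 4-parameter logistic fit.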

T1 sequence (Q00987 17-125): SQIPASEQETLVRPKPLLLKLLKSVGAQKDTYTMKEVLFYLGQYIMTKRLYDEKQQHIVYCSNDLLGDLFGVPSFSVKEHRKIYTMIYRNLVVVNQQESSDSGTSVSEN

Structure (SMILES) | IC50
CC(C)c1ccnc(-c2nc3nc(-c4nnn[nH]4)nc(N[C@H](C)C4CCC4)c3n2Cc2ccc(C(F)(F)F)cc2)c1 [Example 12.1, N-[(1R)-1-cyclobutylethyl]-8-[4-(propan-2-yl)pyridin-2-yl]-2-(1H-tetrazol-5-yl)-7-[4-(trifluoromethyl)benzyl]-7H-purin-6-amine] | 8.35 nM
CC(C)c1ccnc(-c2nc3nc(CO)nc(N[C@H](C)C4CCC4)c3n2Cc2ccc(C(F)(F)F)cc2)c1 [Example 12.2, (6-{[(1R)-1-cyclobutylethyl]amino}-8-[4-(propan-2-yl)pyridin-2-yl]-7-[4-(trifluoromethyl)benzyl]-7H-purin-2-yl)methanol] | 597 nM
CC(C)c1ccnc(-c2nc3nc(-c4cnn[nH]4)nc(N[C@H](C)C4CCC4)c3n2Cc2ccc(C(F)(F)F)cc2)c1 [Example 12.3, N-[(1R)-1-cyclobutylethyl]-8-[4-(propan-2-yl)pyridin-2-yl]-2-(1H-1,2,3-triazol-5-yl)-7-[4-(trifluoromethyl)benzyl]-7H-purin-6-amine] | 535 nM
CC(=O)c1nc(N[C@H](C)C2CCC2)c2c(n1)nc(-c1cc(C(C)C)ccn1)n2C[C@H]1CC[C@H](C)CC1 [Example 12.5, 1-(6-{[(1R)-1-cyclobutylethyl]amino}-7-[(trans-4-methylcyclohexyl)methyl]-8-[4-(propan-2-yl)pyridin-2-yl]-7H-purin-2-yl)ethanone] | 471 nM
CC(C)c1ccnc(-c2nc3nc(C(C)O)nc(N[C@H](C)C4CCC4)c3n2C[C@H]2CC[C@H](C)CC2)c1 (stereo partly drawn) [Example 12.6, 1-(6-{[(1R)-1-cyclobutylethyl]amino}-7-[(trans-4-methylcyclohexyl)methyl]-8-[4-(propan-2-yl)pyridin-2-yl]-7H-purin-2-yl)ethanol] | 420 nM
CC(C)c1ccnc(-c2nc3nc(C(C)(C)O)nc(N[C@H](C)C4CCC4)c3n2C[C@H]2CC[C@H](C)CC2)c1 [Example 12.7, 2-(6-{[(1R)-1-cyclobutylethyl]amino}-7-[(trans-4-methylcyclohexyl)methyl]-8-[4-(propan-2-yl)pyridin-2-yl]-7H-purin-2-yl)propan-2-ol] | 731 nM
CC(C)c1ccnc(-c2nc3nc(-c4nnn[nH]4)nc(N[C@H](C)C4CCC4)c3n2C[C@H]2CC[C@H](C)CC2)c1 [Example 12.8, N-[(1R)-1-cyclobutylethyl]-7-[(trans-4-methylcyclohexyl)methyl]-8-[4-(propan-2-yl)pyridin-2-yl]-2-(1H-tetrazol-5-yl)-7H-purin-6-amine] | 1.91 nM
CC(C)c1ccnc(-c2nc3nc(CNS(C)(=O)=O)nc(N[C@H](C)C4CCC4)c3n2C[C@H]2CC[C@H](C)CC2)c1 [Example 12.9, N-[(6-{[(1R)-1-cyclobutylethyl]amino}-7-[(trans-4-methylcyclohexyl)methyl]-8-[4-(propan-2-yl)pyridin-2-yl]-7H-purin-2-yl)methyl]methanesulfonamide] | 374 nM
C[C@@H](Nc1nc(-c2nnn(C)n2)nc2nc(N3CCOC[C@H]3c3ccccc3)n(C[C@H]3CC[C@H](C)CC3)c12)C1CCC1 [Example 12.11, N-[(1R)-1-cyclobutylethyl]-7-[(trans-4-methylcyclohexyl)methyl]-2-(2-methyl-2H-tetrazol-5-yl)-8-[(3R)-3-phenylmorpholin-4-yl]-7H-purin-6-amine] | 32.5 nM
C[C@@H](Nc1nc(-c2nnnn2C)nc2nc(N3CCOC[C@H]3c3ccccc3)n(C[C@H]3CC[C@H](C)CC3)c12)C1CCC1 [Example 12.12, N-[(1R)-1-cyclobutylethyl]-7-[(trans-4-methylcyclohexyl)methyl]-2-(1-methyl-1H-tetrazol-5-yl)-8-[(3R)-3-phenylmorpholin-4-yl]-7H-purin-6-amine] | 27.3 nM
COC(=O)c1nc(N[C@H](C)C2CCC2)c2c(n1)nc(N1CCOC[C@H]1c1ccccc1)n2C[C@H]1CC[C@H](C)CC1 [Example 12.13, Methyl-6-{[(1R)-1-cyclobutylethyl]amino}-7-[(trans-4-methylcyclohexyl)methyl]-8-[(3R)-3-phenylmorpholin-4-yl]-7H-purine-2-carboxylate] | 49.4 nM
C[C@@H](Nc1nc(C(C)(C)O)nc2nc(N3CCOC[C@H]3c3ccccc3)n(C[C@H]3CC[C@H](C)CC3)c12)C1CCC1 [Example 12.14, 2-(6-{[(1R)-1-cyclobutylethyl]amino}-7-[(trans-4-methylcyclohexyl)methyl]-8-[(3R)-3-phenylmorpholin-4-yl]-7H-purine-2-yl)propan-2-ol] | 107 nM
C[C@@H](Nc1nc(-c2n[nH]c(=O)n2C)nc2nc(N3CCOC[C@H]3c3ccccc3)n(C[C@H]3CC[C@H](C)CC3)c12)C1CCC1 [Example 12.15, 5-(6-{[(1R)-1-cyclobutylethyl]amino}-7-[(trans-4-methylcyclohexyl)methyl]-8-[(3R)-3-phenylmorpholin-4-yl]-7H-purin-2-yl)-4-methyl-2,4-dihydro-3H-1,2,4-triazol-3-one] | 14.5 nM
C[C@@H](Nc1nc(-c2nnc[nH]2)nc2nc(N3CCOC[C@H]3c3ccccc3)n(C[C@H]3CC[C@H](C)CC3)c12)C1CCC1 [Example 12.16, N-[(1R)-1-cyclobutylethyl]-7-[(trans-4-methylcyclohexyl)methyl]-8-[(3R)-3-phenylmorpholin-4-yl]-2-(4H-1,2,4-triazol-3-yl)-7H-purin-6-amine] | 10.8 nM
CCNC(=O)c1nc(N[C@H](C)C2CCC2)c2c(n1)nc(N1CCOC[C@H]1c1ccccc1)n2C[C@H]1CC[C@H](C)CC1 [Example 12.17, 6-{[(1R)-1-cyclobutylethyl]amino}-N-ethyl-7-[(trans-4-methylcyclohexyl)methyl]-8-[(3R)-3-phenylmorpholin-4-yl]-7H-purine-2-carboxamide] | 1.63 nM
C[C@@H](Nc1nc(C(=O)NS(C)(=O)=O)nc2nc(N3CCOC[C@H]3c3ccccc3)n(C[C@H]3CC[C@H](C)CC3)c12)C1CCC1 [Example 12.18, 6-{[(1R)-1-cyclobutylethyl]amino}-7-[(trans-4-methylcyclohexyl)methyl]-N-(methylsulfonyl)-8-[(3R)-3-phenylmorpholin-4-yl]-7H-purine-2-carboxamide] | 0.585 nM

Same assay, conditions: Table 11; read-out: FRET IC50

Structure (SMILES) | IC50
C[C@@H](Nc1nc(-c2noc(=O)[nH]2)nc2nc(N3CCOC[C@H]3c3ccncc3)n(C[C@H]3CC[C@H](C)CC3)c12)C1CCC1 [Example 11.145, 3-(6-{[(1R)-1-cyclobutylethyl]amino}-7-[(trans-4-methylcyclohexyl)methyl]-8-[(3R)-3-pyridin-4-ylmorpholin-4-yl]-7H-purin-2-yl)-1,2,4-oxadiazol-5(4H)-one] | 1.31 nM
C[C@@H](Nc1nc(-c2noc(=O)[nH]2)nc2nc(N3CC4CC4C3C(F)(F)F)n(C[C@H]3CC[C@H](C)CC3)c12)C1CCC1 (stereo partly drawn) [Example 11.152, 3-(6-{[(1R)-1-cyclobutylethyl]amino}-7-[(trans-4-methylcyclohexyl)methyl]-8-[2-(trifluoromethyl)-3-azabicyclo[3.1.0]hex-3-yl]-7H-purin-2-yl)-1,2,4-oxadiazol-5(4H)-one] | 3.09 nM
C[C@@H](Nc1nc(-c2noc(=O)[nH]2)nc2nc(N3CCCC3CS(C)(=O)=O)n(C[C@H]3CC[C@H](C)CC3)c12)C1CCC1 (stereo partly drawn) [Example 11.153, 3-(6-{[(1R)-1-cyclobutylethyl]amino}-7-[(trans-4-methylcyclohexyl)methyl]-8-{2-[(methylsulfonyl)methyl]pyrrolidin-1-yl}-7H-purin-2-yl)-1,2,4-oxadiazol-5(4H)-one] | 65.6 nM
C[C@@H]1OCCN(c2nc3nc(-c4noc(=O)[nH]4)nc(N[C@H](C)C4CCC4)c3n2C[C@H]2CC[C@H](C)CC2)[C@@H]1c1ccccc1 [Example 11.163, 3-(6-{[(1R)-1-cyclobutylethyl]amino}-7-[(trans-4-methylcyclohexyl)methyl]-8-[(2S,3R)-2-methyl-3-phenylmorpholin-4-yl]-7H-purin-2-yl)-1,2,4-oxadiazol-5(4H)-one] | 21.2 nM
C[C@@H]1OCCN(c2nc3nc(-c4n[nH]c(=O)o4)nc(N[C@H](C)C4CCC4)c3n2C[C@H]2CC[C@H](C)CC2)[C@@H]1c1ccccc1 [Example 11.164, 5-(6-{[(1R)-1-cyclobutylethyl]amino}-7-[(trans-4-methylcyclohexyl)methyl]-8-[(2S,3R)-2-methyl-3-phenylmorpholin-4-yl]-7H-purin-2-yl)-1,3,4-oxadiazol-2(3H)-one] | 31 nM
C[C@@H](Nc1nc(-c2noc(=O)[nH]2)nc2nc(N3CCO[C@H](C)[C@H]3c3ccccc3)n(C[C@H]3CC[C@H](C)CC3)c12)C1CCC1 [Example 11.165, 3-(6-{[(1R)-1-cyclobutylethyl]amino}-7-[(trans-4-methylcyclohexyl)methyl]-8-[(2R,3R)-2-methyl-3-phenylmorpholin-4-yl]-7H-purin-2-yl)-1,2,4-oxadiazol-5(4H)-one] | 0.767 nM
C[C@@H](Nc1nc(-c2n[nH]c(=O)o2)nc2nc(N3CCO[C@H](C)[C@H]3c3ccccc3)n(C[C@H]3CC[C@H](C)CC3)c12)C1CCC1 [Example 11.166, 5-(6-{[(1R)-1-cyclobutylethyl]amino}-7-[(trans-4-methylcyclohexyl)methyl]-8-[(2R,3R)-2-methyl-3-phenylmorpholin-4-yl]-7H-purin-2-yl)-1,3,4-oxadiazol-2(3H)-one] | 0.79 nM

Same assay, conditions: read-out: % inh. at 1000 nM; at 1000 nM compound

Structure (SMILES) | inhibition at 1 µM
CC(C)c1ccnc(-c2nc3nc(CN)nc(N[C@H](C)C4CCC4)c3n2C[C@H]2CC[C@H](C)CC2)c1 [Example 12.4, 2-(aminomethyl)-N-[(1R)-1-cyclobutylethyl]-7-[(trans-4-methylcyclohexyl)methyl]-8-[4-(propan-2-yl)pyridin-2-yl]-7H-purine-6-amine] | 39%
CC(C)c1ccnc(-c2nc3nc(CNC(=O)C(F)(F)F)nc(N[C@H](C)C4CCC4)c3n2C[C@H]2CC[C@H](C)CC2)c1 [Example 12.10, N-[(6-{[(1R)-1-cyclobutylethyl]amino}-7-[(trans-4-methylcyclohexyl)methyl]-8-[4-(propan-2-yl)pyridin-2-yl]-7H-purin-2-yl)methyl]-2,2,2-trifluoroacetamide] | 30%
